# Laboratory results reported in PubChem BioAssay (NCI).
#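 1) Cells in 96-well plates. 2) Compound, 48 h, 5 concentrations. 3) Linear interpolation between surrounding doses. 4) Unreached endpoint = highest concentration. TGI: total growth inhibition.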
# Columns and labels:
# Assay in all cases: DTP human tumour cell line panel, 48 h
# NCI-H522 lung = system: NCI-H522 lung
# LOX IMVI melanoma = system: LOX IMVI melanoma
# HCT-15 colon = system: HCT-15 colon
# OVCAR-5 ovarian = system: OVCAR-5 ovarian
# A498 renal = system: A498 renal
# NCI-H460 lung = system: NCI-H460 lung
# MDA-N = system: MDA-N
# HCT-116 colon = system: HCT-116 colon
# DU-145 prostate = system: DU-145 prostate
# SF-539 CNS = system: SF-539 CNS
# BT-549 breast = system: BT-549 breast
# MOLT-4 leukemia = system: MOLT-4 leukemia
# SNB-75 CNS = system: SNB-75 CNS
# NCI-H23 lung = system: NCI-H23 lung
# SK-MEL-28 melanoma = system: SK-MEL-28 melanoma
# UACC-257 melanoma = system: UACC-257 melanoma
# SN12C renal = system: SN12C renal
# EKVX NSCLC = system: EKVX NSCLC
# U251 CNS = system: U251 CNS
# OVCAR-3 ovarian = system: OVCAR-3 ovarian
# M14 melanoma = system: M14 melanoma
# CCRF-CEM leukemia = system: CCRF-CEM leukemia
# SK-OV-3 ovarian = system: SK-OV-3 ovarian
# HT29 colon = system: HT29 colon
# MCF7 breast = system: MCF7 breast
# K-562 leukemia = system: K-562 leukemia
# MDA-MB-231 breast = system: MDA-MB-231 breast
# ACHN renal = system: ACHN renal
# UO-31 renal = system: UO-31 renal
# RPMI-8226 leukemia = system: RPMI-8226 leukemia
# HL-60(TB) leukemia = system: HL-60(TB) leukemia
# HOP-62 NSCLC = system: HOP-62 NSCLC
# SK-MEL-2 melanoma = system: SK-MEL-2 melanoma
# SNB-19 CNS = system: SNB-19 CNS
# MDA-MB-435 = system: MDA-MB-435
# SR leukemia = system: SR leukemia
# MALME-3M melanoma = system: MALME-3M melanoma
# T-47D breast = system: T-47D breast
# NCI-H226 lung = system: NCI-H226 lung
# KM12 colon = system: KM12 colon
# HCC-2998 colon = system: HCC-2998 colon
# HS 578T breast = system: HS 578T breast
# UACC-62 melanoma = system: UACC-62 melanoma
# TK-10 renal = system: TK-10 renal
# RXF 393 renal = system: RXF 393 renal
# PC-3 prostate = system: PC-3 prostate
# OVCAR-4 ovarian = system: OVCAR-4 ovarian
# SK-MEL-5 melanoma = system: SK-MEL-5 melanoma
# 786-0 renal = system: 786-0 renal
# SF-295 CNS = system: SF-295 CNS
# SF-268 CNS = system: SF-268 CNS
# NCI/ADR-RES ovarian = system: NCI/ADR-RES ovarian
# COLO 205 colon = system: COLO 205 colon
# CAKI-1 renal = system: CAKI-1 renal
# A549 NSCLC = system: A549 NSCLC
# OVCAR-8 ovarian = system: OVCAR-8 ovarian
# IGROV1 ovarian = system: IGROV1 ovarian
# HOP-92 NSCLC = system: HOP-92 NSCLC
# SW-620 colon = system: SW-620 colon
structure (smiles),measurement,setting,value
CCCOP(=O)(OCCC)OC(C(F)(F)F)C(F)(F)F,TGI,NCI-H522 lung,> 100 µM
same,TGI,LOX IMVI melanoma,> 100 µM
same,TGI,HCT-15 colon,> 100 µM
same,TGI,OVCAR-5 ovarian,> 100 µM
same,TGI,A498 renal,> 100 µM
same,TGI,NCI-H460 lung,> 100 µM
same,TGI,MDA-N,> 100 µM
same,TGI,HCT-116 colon,> 100 µM
same,TGI,DU-145 prostate,> 100 µM
same,TGI,SF-539 CNS,> 100 µM
same,TGI,BT-549 breast,> 100 µM
same,TGI,MOLT-4 leukemia,> 100 µM
same,TGI,SNB-75 CNS,> 100 µM
same,TGI,NCI-H23 lung,> 100 µM
same,TGI,SK-MEL-28 melanoma,> 100 µM
same,TGI,UACC-257 melanoma,> 100 µM
same,TGI,SN12C renal,> 100 µM
same,TGI,EKVX NSCLC,> 100 µM
same,TGI,U251 CNS,> 100 µM
same,TGI,OVCAR-3 ovarian,> 100 µM
same,TGI,M14 melanoma,> 100 µM
same,TGI,CCRF-CEM leukemia,> 100 µM
same,TGI,SK-OV-3 ovarian,> 100 µM
same,TGI,HT29 colon,> 100 µM
same,TGI,MCF7 breast,> 100 µM
same,TGI,K-562 leukemia,> 100 µM
same,TGI,MDA-MB-231 breast,> 100 µM
same,TGI,ACHN renal,> 100 µM
same,TGI,UO-31 renal,> 100 µM
same,TGI,RPMI-8226 leukemia,> 100 µM
same,TGI,HL-60(TB) leukemia,> 100 µM
same,TGI,HOP-62 NSCLC,> 100 µM
same,TGI,SK-MEL-2 melanoma,> 100 µM
same,TGI,SNB-19 CNS,> 100 µM
same,TGI,MDA-MB-435,> 100 µM
same,TGI,SR leukemia,> 100 µM
same,TGI,MALME-3M melanoma,> 100 µM
same,TGI,T-47D breast,> 100 µM
same,TGI,NCI-H226 lung,> 100 µM
same,TGI,KM12 colon,> 100 µM
same,TGI,HCC-2998 colon,> 100 µM
same,TGI,HS 578T breast,> 100 µM
same,TGI,UACC-62 melanoma,> 100 µM
same,TGI,TK-10 renal,> 100 µM
same,TGI,RXF 393 renal,> 100 µM
CCCCc1ccc(Nc2nc(Cl)c3ccn(C4CC(Oc5ccc(C)cc5)C(COc5ccc(C)cc5)O4)c3n2)cc1 (configuration not stated),TGI,PC-3 prostate,> 100 µM
same,TGI,NCI-H522 lung,30.7 µM
same,TGI,LOX IMVI melanoma,> 46.4 µM
same,TGI,HCT-15 colon,> 46.4 µM
same,TGI,OVCAR-5 ovarian,> 31.6 µM
same,TGI,A498 renal,> 46.4 µM
same,TGI,NCI-H460 lung,> 31.6 µM
same,TGI,MDA-N,> 46.4 µM
same,TGI,HCT-116 colon,> 46.4 µM
same,TGI,OVCAR-4 ovarian,> 31.6 µM
same,TGI,DU-145 prostate,> 46.4 µM
same,TGI,SK-MEL-5 melanoma,> 46.4 µM
same,TGI,786-0 renal,> 46.4 µM
same,TGI,SF-539 CNS,> 46.4 µM
same,TGI,SF-295 CNS,> 46.4 µM
same,TGI,SF-268 CNS,> 100 µM
same,TGI,BT-549 breast,17.3 µM
same,TGI,MOLT-4 leukemia,> 46.4 µM
same,TGI,SNB-75 CNS,> 100 µM
same,TGI,NCI-H23 lung,30.8 µM
same,TGI,SK-MEL-28 melanoma,> 100 µM
same,TGI,UACC-257 melanoma,31.5 µM
same,TGI,SN12C renal,> 46.4 µM
same,TGI,EKVX NSCLC,38 µM
same,TGI,U251 CNS,> 46.4 µM
same,TGI,OVCAR-3 ovarian,> 100 µM
same,TGI,NCI/ADR-RES ovarian,> 46.4 µM
same,TGI,COLO 205 colon,> 46.4 µM
same,TGI,M14 melanoma,> 46.4 µM
same,TGI,CCRF-CEM leukemia,> 46.4 µM
same,TGI,CAKI-1 renal,> 46.4 µM
same,TGI,SK-OV-3 ovarian,> 46.4 µM
same,TGI,A549 NSCLC,> 46.4 µM
same,TGI,HT29 colon,> 46.4 µM
same,TGI,MCF7 breast,> 46.4 µM
same,TGI,K-562 leukemia,> 46.4 µM
same,TGI,MDA-MB-231 breast,> 46.4 µM
same,TGI,ACHN renal,31.4 µM
same,TGI,UO-31 renal,31.2 µM
same,TGI,RPMI-8226 leukemia,> 46.4 µM
same,TGI,OVCAR-8 ovarian,> 46.4 µM
same,TGI,HL-60(TB) leukemia,> 46.4 µM
same,TGI,HOP-62 NSCLC,> 100 µM
same,TGI,SK-MEL-2 melanoma,> 46.4 µM
same,TGI,SNB-19 CNS,31.8 µM
same,TGI,MDA-MB-435,> 46.4 µM
same,TGI,MALME-3M melanoma,32.9 µM
same,TGI,T-47D breast,> 46.4 µM
same,TGI,NCI-H226 lung,> 46.4 µM
same,TGI,IGROV1 ovarian,29.5 µM
same,TGI,KM12 colon,> 46.4 µM
same,TGI,HCC-2998 colon,> 46.4 µM
same,TGI,HS 578T breast,> 100 µM
same,TGI,UACC-62 melanoma,30.6 µM
same,TGI,HOP-92 NSCLC,> 46.4 µM
same,TGI,TK-10 renal,43.4 µM
same,TGI,RXF 393 renal,> 46.4 µM
same,TGI,SW-620 colon,> 46.4 µM
CCN(CC)CC1CN=C(N)O1 (configuration not stated),TGI,PC-3 prostate,> 100 µM
same,TGI,LOX IMVI melanoma,> 100 µM
same,TGI,HCT-15 colon,> 100 µM
same,TGI,OVCAR-5 ovarian,> 100 µM
same,TGI,A498 renal,> 100 µM
same,TGI,NCI-H460 lung,> 100 µM
same,TGI,MDA-N,> 100 µM
same,TGI,HCT-116 colon,> 100 µM
same,TGI,OVCAR-4 ovarian,> 100 µM
same,TGI,DU-145 prostate,> 100 µM
same,TGI,SK-MEL-5 melanoma,> 100 µM
same,TGI,786-0 renal,> 100 µM
same,TGI,SF-539 CNS,> 100 µM
same,TGI,SF-295 CNS,> 100 µM
same,TGI,BT-549 breast,> 100 µM
same,TGI,MOLT-4 leukemia,> 100 µM
same,TGI,SNB-75 CNS,> 100 µM
same,TGI,NCI-H23 lung,> 100 µM
same,TGI,SK-MEL-28 melanoma,> 100 µM
same,TGI,UACC-257 melanoma,> 100 µM
same,TGI,SN12C renal,> 100 µM
same,TGI,EKVX NSCLC,> 100 µM
same,TGI,U251 CNS,> 100 µM
same,TGI,OVCAR-3 ovarian,> 100 µM
same,TGI,NCI/ADR-RES ovarian,> 100 µM
same,TGI,COLO 205 colon,> 100 µM
same,TGI,M14 melanoma,> 100 µM
same,TGI,CCRF-CEM leukemia,> 100 µM
same,TGI,CAKI-1 renal,> 100 µM
same,TGI,A549 NSCLC,> 100 µM
same,TGI,MCF7 breast,> 100 µM
same,TGI,K-562 leukemia,> 100 µM
same,TGI,MDA-MB-231 breast,> 100 µM
same,TGI,ACHN renal,> 100 µM
same,TGI,UO-31 renal,> 100 µM
same,TGI,RPMI-8226 leukemia,> 100 µM
same,TGI,OVCAR-8 ovarian,> 100 µM
same,TGI,HOP-62 NSCLC,> 100 µM
same,TGI,SK-MEL-2 melanoma,> 100 µM
same,TGI,SNB-19 CNS,> 100 µM
same,TGI,MDA-MB-435,> 100 µM
same,TGI,SR leukemia,> 100 µM
same,TGI,T-47D breast,> 100 µM
same,TGI,NCI-H226 lung,> 100 µM
same,TGI,IGROV1 ovarian,> 100 µM
same,TGI,KM12 colon,> 100 µM
same,TGI,HCC-2998 colon,> 100 µM
same,TGI,UACC-62 melanoma,> 100 µM
same,TGI,HOP-92 NSCLC,> 100 µM
same,TGI,RXF 393 renal,> 100 µM
same,TGI,SW-620 colon,> 100 µM
NC(=O)c1cccc(OCC(O)CO)c1 (configuration not stated),TGI,PC-3 prostate,> 100 µM
same,TGI,NCI-H522 lung,> 100 µM
same,TGI,HCT-15 colon,> 100 µM
same,TGI,OVCAR-5 ovarian,> 100 µM
same,TGI,A498 renal,> 100 µM
same,TGI,NCI-H460 lung,> 100 µM
same,TGI,MDA-N,> 100 µM
same,TGI,HCT-116 colon,> 100 µM
same,TGI,OVCAR-4 ovarian,> 100 µM
same,TGI,DU-145 prostate,> 100 µM
same,TGI,SK-MEL-5 melanoma,> 100 µM
same,TGI,786-0 renal,> 100 µM
same,TGI,SF-539 CNS,> 100 µM
same,TGI,SF-295 CNS,> 100 µM
same,TGI,SF-268 CNS,> 100 µM
same,TGI,BT-549 breast,> 100 µM
same,TGI,MOLT-4 leukemia,> 100 µM
same,TGI,SNB-75 CNS,> 100 µM
same,TGI,NCI-H23 lung,> 100 µM
same,TGI,SK-MEL-28 melanoma,> 100 µM
same,TGI,UACC-257 melanoma,> 100 µM
same,TGI,SN12C renal,> 100 µM
same,TGI,EKVX NSCLC,> 100 µM
same,TGI,U251 CNS,> 100 µM
same,TGI,OVCAR-3 ovarian,> 100 µM
same,TGI,NCI/ADR-RES ovarian,> 100 µM
same,TGI,COLO 205 colon,> 100 µM
same,TGI,M14 melanoma,> 100 µM
same,TGI,CCRF-CEM leukemia,> 100 µM
same,TGI,CAKI-1 renal,> 100 µM
same,TGI,SK-OV-3 ovarian,> 100 µM
same,TGI,A549 NSCLC,> 100 µM
same,TGI,HT29 colon,> 100 µM
same,TGI,MCF7 breast,> 100 µM
same,TGI,K-562 leukemia,> 100 µM
same,TGI,MDA-MB-231 breast,> 100 µM
same,TGI,ACHN renal,> 100 µM
same,TGI,UO-31 renal,> 100 µM
same,TGI,OVCAR-8 ovarian,> 100 µM
same,TGI,HL-60(TB) leukemia,> 100 µM
same,TGI,HOP-62 NSCLC,> 100 µM
same,TGI,SK-MEL-2 melanoma,> 100 µM
same,TGI,SNB-19 CNS,> 100 µM
same,TGI,SR leukemia,> 100 µM
same,TGI,T-47D breast,> 100 µM
same,TGI,NCI-H226 lung,> 100 µM
same,TGI,IGROV1 ovarian,> 100 µM
same,TGI,KM12 colon,> 100 µM
same,TGI,HCC-2998 colon,> 100 µM
same,TGI,HS 578T breast,> 100 µM
same,TGI,UACC-62 melanoma,> 100 µM
same,TGI,TK-10 renal,> 100 µM
same,TGI,SW-620 colon,> 100 µM
